In patent US9676715B2, “Bis-indolic derivatives, a process for preparing the same and their uses as a drug” (UNIVERSITE JOSEPH FOURIER, priority 2011, dated 2017):
Values after ≈ are worked out from the molar mass of the structure shown.

How the values were obtained:
[1] = test system: Staphylococcus caprae (CHUG-Scapra1); assay: MIC, Staphylococcus panel (9.2); format: cell-based; details: S. caprae CHUG-Scapra1, 4% DMSO, 18 h
Description: (§1) The microdilution method recommended by the Clinical and Laboratory Standard Institute [M07-A9, Vol. 32, N° 2] was used. The activity of bis-indolic compounds 3f and 4 was tested against 35 Staphylococcus bacterial strains corresponding to 12 different species,
(§2) Bacterial inocula were prepared in Mueller Hinton broth (MH2, BioMérieux, Marcy L'Etoile, France). They were dispensed in 96 well microtiter plates (5×10^5 CFU/ml of final inoculum, 192 μL per well). Indolic compounds diluted in pure DMSO (8 μL per well, concentrated 25 times) were added to the wells as to obtain two-fold serial concentrations (0.5-32 mg/L of final concentrations). The final concentration of DMSO was 4% in each well.
(§3) To avoid cross-contaminations in microtiter plates, one row was left blank between each strain tested. Microplates were incubated for 18 h at 37° C. in ambient air. Then MICs were read visually and, in case of visual reading difficulties, confirmed using a spectrophotometer at a wavelength of 630 nm (BioTek® EL808 Absorbance Microplate Reader). MICs corresponded to the minimum bis-indolic compound concentration that allowed complete visual growth inhibition of bacteria. Drug-free cultures served as growth controls.
(§4) Coagulase-negative Staphylococcus strains included three reference strains purchased from CRBIP: a methicillin-susceptible S. epidermidis strain (ATCC 12228), a methicillin-resistant S. epidermidis strain (ATCC 49461), and a methicillin-susceptible S. sciuri strain (ATCC 29061). We also used clinical strains belonging to the following coagulase-negative Staphylococcus species: S. auricularis (two strains), S. warneri (five strains), S. capitis (five strains), S. haemolyticus (four strains), S. hominis (seven strains), S. cohnii (two strains), and S. saprophyticus, S. caprae and S. simulans (one strain each). Identification of the clinical strains was obtained using VITEK® 2 System (Biomérieux). The specified strain numbers correspond to an internal number of the bacterial strain collection of our laboratory.

[2] = test system: Staphylococcus epidermidis ATCC 49461; assay: MIC, Staphylococcus panel (9.2); format: cell-based; details: ATCC49461, S. epidermidis ATCC 49461, 4% DMSO, 18 h
Description: as §1, §2, §3, §4

[3] = test system: Staphylococcus haemolyticus (CHUG-Shae6); assay: MIC, Staphylococcus panel (9.2); format: cell-based; details: S. haemolyticus CHUG-Shae6, 4% DMSO, 18 h
Description: as §1, §2, §3, §4

[4] = test system: Staphylococcus warneri (CHUG-Swar1); assay: MIC, Staphylococcus panel (9.2); format: cell-based; details: S. warneri CHUG-Swar1, 4% DMSO, 18 h
Description: as §1, §2, §3, §4

[5] = test system: Staphylococcus warneri (CHUG-Swar4); assay: MIC, Staphylococcus panel (9.2); format: cell-based; details: S. warneri CHUG-Swar4, 4% DMSO, 18 h
Description: as §1, §2, §3, §4

S. aureus ATCC 25923 = assay: Concentration-killing curves; format: cell-based, Staphylococcus aureus; details: concentrations up to 128 mg/L, after 18 h of incubation
Description: FIGS. 1A and 1B present concentration-killing curves for the indolic compounds 3f and 4 against S. aureus ATCC 25923. The activity is evaluated after 18 h incubation of S. aureus cultures in the presence of the tested compound.
The area between the horizontal full line and the dashed line corresponds to a bacteriostatic effect and the area below the dashed line corresponds to a bactericidal effect (i.e., ≧3 log reduction of the primary bacterial inoculum after 18 h incubation of cultures in the presence of the tested compound).
The method described by Motyl et al. [M. Motyl, K. Dorso, J. Barrett, R. Giacobbe, Basic Microbiological Techniques Used in Antibacterial Drug Discovery. Current Protocols in Pharmacology. UNIT 13A.3. January, 2006] was used.
Killing curves corresponded to the measure of the kinetic of bactericidal activity of indolic compounds over time (time-kill curves) or after 18 h incubation of cultures according to different drug concentrations (concentration-killing curves). […] Bacterial inocula are determined in each tube using the CFU count method at the beginning of the experiments, and then after 18 h for concentration-killing curves, or after 1 h, 2 h, 4 h, 8 h and 18 h for time-kill curves. […]

[6] = test system: Staphylococcus aureus ATCC 106414 (VISA); assay: MIC, Staphylococcus panel (9.2); format: cell-based; details: 18 h
Description: as §1, §2, §3
Four Staphylococcus aureus strains were used. Two reference strains were provided by the French reference center for Staphylococcus spp. (Lyon, France), including one methicillin-susceptible (MSSA 476) and one methicillin-resistant (MRSA 252) S. aureus strains. The two remaining S. aureus strains were purchased from the CRBIP (Centre de Ressources Biologiques de l'Institut Pasteur): a vancomycin-intermediate strain (ATCC 106414) and a S. aureus strain (SA-1199B) resistant to fluoroquinolones due to overexpression of the NorA multidrug efflux pump.

[7] = test system: Staphylococcus aureus 1199B (overexpression of the NorA efflux pump); assay: Efflux pump inhibition assay with sub-inhibitory ciprofloxacin; format: cell-based; details: S. aureus 1199B
Description: The efflux pump inhibition potential of the bis-indolic derivatives was tested using two steps.
The following experimental protocol was used: indolic derivatives (initially solubilised in DMSO at 10 mg/mL) were dispensed in a 96-wells microplate by two fold serial dilutions in Muller-Hinton medium (MH, Bio Rad) using a Biomek 2000 (Beckman) handling robot. 100 μL of the bacterial inoculum (an overnight culture at 37° C. in 5 mL MH diluted 100-fold) was then added in each well. The total volume was 200 μL in each well and the final bacteria concentration 10^6 CFU/mL (CFU: colony forming unit). The highest final indolic derivative concentration was 128 mg/L. Growth was assayed with a microplate reader by monitoring absorption at 620 nm after 1, 2, 5, 7 and 24 h incubation at 37° C. In addition, the plates were read visually after 24 hours incubation. Cultures containing 5 μL DMSO were used as growth controls. In addition, two controls containing a sub-inhibitory or a inhibitory antibiotic concentration for the tested strain were performed. The antibiotics used were ampicillin (0.5 and 32 μg/mL) for E. coli, kanamycin (0.5 and 16 μg/mL) for S. aureus ATCC 25923, ciprofloxacin (4 and 64 mg/L) for S. aureus 1199B, ciprofloxacin (0.5 and 2 mg/L) for S. aureus K2378. All experiments were performed in duplicate.
Efflux pump inhibition assays were then performed against resistant Staphylococcus aureus strains SA 1199B and SA K2378 for bis-indolic derivatives. […] The minimal inhibitory concentration (MIC) of the bis-indolic compound allowing a complete inhibition of the bacterial growth in the presence of ciprofloxacin was determined.

[8] = in the presence of ciprofloxacin 4 mg/L

Row | SMILES | MIC [1] [µg/mL] | MIC [2] [µg/mL] | MIC [3] [µg/mL] | MIC [4] [µg/mL] | MIC [5] [µg/mL] | bactericidal activity (concentration-killing curve) (S. aureus ATCC 25923) | MIC [6] [µg/mL] | MIC, mg/L (Ciprofloxacin concentration, mg/L) ([7]; in the presence of ciprofloxacin 1 mg/L) | MIC, mg/L (Ciprofloxacin concentration, mg/L) ([7]; in the presence of ciprofloxacin 2 mg/L) | MIC, mg/L (Ciprofloxacin concentration, mg/L) [7, 8]
1 | CC(C)(C)OC(=O)NCC(NC(=O)c1c[nH]c2ccc(Br)cc12)c1c[nH]c2ccc(Br)cc12 (centres unmarked) [Compound 3f, tert-Butyl(2-(5-bromo-1H-indol-3-yl)-2-(5-bromo-1H-indolyl-3-carboxamido)ethyl)carbamate] | 8 (≈ 13.9 µM) | 2 (≈ 3.47 µM) | 16 (≈ 27.8 µM) | 2 (≈ 3.47 µM) | 8 (≈ 13.9 µM) | no detectable bactericidal activity |  |  |  | 
2 | CC(NC(=O)c1c[nH]c2ccc(Br)cc12)c1c[nH]c2ccc(Br)cc12 (centres unmarked) [Compound 4, 5-Bromo-N-(1-(5-bromo-1H-indol-3-yl)ethyl)-1H-indole-3-carboxamide] |  | 1 (≈ 2.17 µM) |  | 1 (≈ 2.17 µM) |  | no detectable bactericidal activity | 1 (≈ 2.17 µM) |  |  | 
3 | Cn1cc(C(=O)NC(CNC(=O)OC(C)(C)C)c2c[nH]c3ccc(Br)cc23)c2cc(Br)ccc21 (centres unmarked) [Compound 7, tert-Butyl (2-(5-bromo-1-methyl-1H-indole-3-carboxamido)-2-(5-bromo-1H-indol-3-yl)ethyl) carbamate] |  |  |  |  |  |  |  | 4 (1) mg/L | 1 (2) mg/L | 0.25 (4) mg/L
4 | NCCCCNC(=O)C(NC(=O)c1c[nH]c2ccc(Br)cc12)c1c[nH]c2ccc(Br)cc12 (centres unmarked) [Compound 16, N-(2-((4-Aminobutyl)amino)-1-(5-bromo-1H-indol-3-yl)-2-oxoethyl)-5-bromo-1H-indole-3-carboxamide] |  |  |  |  |  |  |  |  |  | 1 (4) mg/L
